Values of other authors, collected in patent US12697312B2, “Methods and devices for treatment of eyelid ptosis” (priority 2022, dated 2026).

Experiments:
Müllers muscle = conditions: by activating post synaptic neuromuscular junction and muscle contraction
dry eye = conditions: eye drops containing retinyl palmitate 0.05 percent; Kim et al. (2009)

Compound | effect on the eyelid (ptosis) (Müllers muscle) | treatment of dry eye (keratoconjunctivitis sicca) (dry eye)
CNC[C@H](O)c1cccc(O)c1 [Phenylephrine] | shown to lift the eyelid | 
CCCCCCCCCCCCCCCC(=O)OC/C=C(C)/C=C/C=C(C)/C=C/C1=C(C)CCCC1(C)C [retinyl palmitate] |  | effective treatment for dry eye
